In patent publication US7138361B2, “Herbicidal heterocycles” (E. I. du Pont de Nemours and Company, priority 2000, dated 2006):

How the values were obtained:
Assay type in all cases: in vivo
Sunflower [1] = assay: Test C preemergence; details: Rate 250 g/ha, visual evaluation after 12 to 14 days
corn (Zea mays) = assay: Test C preemergence
Summary of the method: (§1)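 Plants held in greenhouse for 12–14 days post-application are scored by eye against controls on a 0–100 control scale. Application timing: preemergence on sown seed, or postemergence on 2–18 cm plants.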

[2] = tested on: Surinam grass (Brachiaria decumbens); assay: Test C preemergence
Summary of the method: as §1

[3] = tested on: goosegrass (Eleusine indica); assay: Test C preemergence
Summary of the method: as §1

Sunflower [4] = assay: Test C preemergence
[5] = tested on: yellow nutsedge (Cyperus esculentus); assay: Test C preemergence
Summary of the method: as §1

[6] = tested on: giant foxtail (Setaria faberii); assay: Test C preemergence
Summary of the method: as §1

[7] = tested on: velvetleaf (Abutilon theophrasti); assay: Test C preemergence
Summary of the method: as §1

[8] = tested on: morningglory (Ipomoea hederacea); assay: Test C preemergence
Summary of the method: as §1

[9] = tested on: lambsquarters (Chenopodium album); assay: Test C preemergence
Summary of the method: as §1

[10] = tested on: woolly cupgrass (Eriochloa villosa); assay: Test C preemergence
Summary of the method: as §1

soybean (Glycine max) = assay: Test C preemergence
Summary of the method: as §1

[11] = tested on: pigweed (Amaranthus retroflexus); assay: Test C preemergence
Summary of the method: as §1

kochia (Kochia scoparia) = assay: Test C preemergence
Summary of the method: as §1

[12] = tested on: bermudagrass (Cynodon dactylon); assay: Test C preemergence
Summary of the method: as §1

Nightshade = assay: Test C preemergence
[13] = tested on: crabgrass (Digitaria sanguinalis); assay: Test C preemergence
Summary of the method: as §1

[14] = tested on: johnsongrass (Sorghum halepense); assay: Test C preemergence
Summary of the method: as §1

[15] = tested on: cocklebur (Xanthium strumarium); assay: Test C preemergence
Summary of the method: as §1

[16] = tested on: barnyardgrass (Echinochloa crus-galli); assay: Test C flooded paddy test; details: for Barnyardgrass plant response rating: Flooded Paddy, scale 0 to 100, 0 no effect, 100 complete control; for Plant response rating, Barnyardgrass: flooded paddy test, scale 0 to 100 (0 no effect, 100 complete control)
Summary of the method: (§2)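 Visual injury score, 0 (no effect) to 100 (complete control), relative to controls. Paddy plants treated at 2-leaf stage; greenhouse hold 12–14 d before rating.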

[17] = tested on: smallflower flatsedge (Cyperus difformis); assay: Test C flooded paddy test; details: for Flatsedge plant response rating: Flooded Paddy, scale 0 to 100, 0 no effect, 100 complete control; for Plant response rating, Flatsedge: flooded paddy test, scale 0 to 100 (0 no effect, 100 complete control)
Summary of the method: as §2

[18] = tested on: duck salad (Heteranthera limosa); assay: Test C flooded paddy test; details: for Ducksalad plant response rating: Flooded Paddy, scale 0 to 100, 0 no effect, 100 complete control; for Plant response rating, Ducksalad: flooded paddy test, scale 0 to 100 (0 no effect, 100 complete control)
Summary of the method: as §2

[19] = Preemergence, Rate 500 g/ha, scale 0 to 100
[20] = Rate 62 g/ha, scale 0 to 100, 0 no effect, 100 complete control
[21] = preemergence, Rate 250 g/ha, visual evaluation after 12 to 14 days
[22] = preemergence, Rate 125 g/ha, scale 0 to 100, 0 no effect, 100 complete control

O=C1C(n2ccc(C3CCC3)n2)OCN1c1cccc(C(F)(F)F)c1 (centres unmarked) [Compound 39]
Plant response rating (0 to 100), Sunflower (Sunflower [1]): 0
Plant response rating, Corn (corn (Zea mays); [19]): 70
Plant response rating, Corn (corn (Zea mays); [20]): 0
Plant response rating (0 to 100), Corn (corn (Zea mays); [21]): 0
Plant response rating, Corn (corn (Zea mays); [22]): 0
Plant response rating, Surinam grass [2, 19]: 80
Plant response rating, Surinam grass [2, 20]: 0
Plant response rating (0 to 100), Surinam grass [2, 21]: 0
Plant response rating, Surinam grass [2, 22]: 0
Plant response rating, Goosegrass [3, 19]: 100
Plant response rating, Goosegrass [3, 20]: 80
Plant response rating (0 to 100), Goosegrass [3, 21]: 100
Plant response rating, Goosegrass [3, 22]: 90
Plant response rating, Sunflower (Sunflower [4]; [20]): 0
Plant response rating, Sunflower (Sunflower [4]; Rate 500 g/ha, scale 0 to 100): 0
Plant response rating, Nutsedge [5, 19]: 40
Plant response rating, Nutsedge [5, 20]: 0
Plant response rating (0 to 100), Nutsedge [5, 21]: 0
Plant response rating, Nutsedge [5, 22]: 0
Plant response rating, Foxtail, Giant [6, 19]: 100
Plant response rating, Foxtail, Giant [6, 20]: 0
Plant response rating (0 to 100), Foxtail, Giant [6, 21]: 0
Plant response rating, Foxtail, Giant [6, 22]: 0
Plant response rating, Velvetleaf [7, 19]: 0
Plant response rating, Velvetleaf [7, 20]: 0
Plant response rating (0 to 100), Velvetleaf [7, 21]: 0
Plant response rating, Velvetleaf [7, 22]: 0
Plant response rating, Morningglory [8, 19]: 0
Plant response rating, Morningglory [8, 20]: 0
Plant response rating (0 to 100), Morningglory [8, 21]: 0
Plant response rating, Morningglory [8, 22]: 0
Plant response rating, Lambsquarters [9, 19]: 100
Plant response rating, Lambsquarters [9, 20]: 100
Plant response rating (0 to 100), Lambsquarters [9, 21]: 100
Plant response rating, Lambsquarters [9, 22]: 100
Plant response rating, Cupgrass, Woolly [10, 19]: 100
Plant response rating, Cupgrass, Woolly [10, 20]: 0
Plant response rating (0 to 100), Cupgrass, Woolly [10, 21]: 90
Plant response rating, Cupgrass, Woolly [10, 22]: 20
Plant response rating, Soybean (soybean (Glycine max); [19]): 0
Plant response rating, Soybean (soybean (Glycine max); [20]): 0
Plant response rating (0 to 100), Soybean (soybean (Glycine max); [21]): 0
Plant response rating, Soybean (soybean (Glycine max); [22]): 0
Plant response rating, Pigweed [11, 19]: 100
Plant response rating, Pigweed [11, 20]: 0
Plant response rating (0 to 100), Pigweed [11, 21]: 0
Plant response rating, Pigweed [11, 22]: 0
Plant response rating, Kochia (kochia (Kochia scoparia); [19]): 90
Plant response rating, Kochia (kochia (Kochia scoparia); [20]): 0
Plant response rating (0 to 100), Kochia (kochia (Kochia scoparia); [21]): 70
Plant response rating, Kochia (kochia (Kochia scoparia); [22]): 50
Plant response rating, Bermudagrass [12, 19]: 100
Plant response rating, Bermudagrass [12, 20]: 90
Plant response rating (0 to 100 where 0 is no effect and 100 is complete control), Bermudagrass [12, 21]: 100
Plant response rating, Bermudagrass [12, 22]: 90
Plant response rating, Nightshade (Nightshade; [20]): 0
Plant response rating, Nightshade (Nightshade; Rate 125 g/ha, scale 0 to 100, 0 no effect, 100 complete control): 0
Plant response rating, Nightshade (Nightshade; Rate 500 g/ha, scale 0 to 100): 0
Plant response rating, Crabgrass [13, 19]: 100
Plant response rating, Crabgrass [13, 20]: 90
Plant response rating (0 to 100), Crabgrass [13, 21]: 100
Plant response rating, Crabgrass [13, 22]: 100
Plant response rating, Johnsongrass [14, 19]: 90
Plant response rating, Johnsongrass [14, 20]: 0
Plant response rating (0 to 100), Johnsongrass [14, 21]: 70
Plant response rating, Johnsongrass [14, 22]: 0
Plant response rating, Cocklebur [15, 19]: 0
Plant response rating, Cocklebur [15, 20]: 0
Barnyardgrass plant response rating ([16]; Rate 250 g/ha): 100
Barnyardgrass plant response rating ([16]; Rate 500 g/ha): 100
Plant response rating, Barnyardgrass ([16]; Rate 62 g/ha): 80
Plant response rating, Barnyardgrass ([16]; Rate 125 g/ha): 80
Flatsedge plant response rating ([17]; Rate 250 g/ha): 100
Flatsedge plant response rating ([17]; Rate 500 g/ha): 100
Plant response rating, Flatsedge ([17]; Rate 62 g/ha): 90
Plant response rating, Flatsedge ([17]; Rate 125 g/ha): 100
Ducksalad plant response rating ([18]; Rate 250 g/ha): 70
Ducksalad plant response rating ([18]; Rate 500 g/ha): 100
Plant response rating, Ducksalad ([18]; Rate 62 g/ha): 20
Plant response rating, Ducksalad ([18]; Rate 125 g/ha): 60
